Drawing on patent US10583092B2, “Therapeutic nanoparticles comprising a protonatable nitrogen therapeutic agent and methods of making and using same” (Pfizer Inc., priority 2014, dated 2020), this text covers improvement of solubility for one molecule.

The structures appear in SMILES notation.

This data set is described as follows: Solubility of dasatinib in solvents, quantified using HPLC. Format: physicochemical. The conditions noted are these: benzyl alcohol doped with oleic acid versus benzyl alcohol. An excerpt: The solubility of dasatinib in benzyl alcohol, ethyl acetate, and mixtures of oleic acid and benzyl alcohol were quantified using HPLC.

In the case of `Cc1nc(Nc2ncc(C(=O)Nc3c(C)cccc3Cl)s2)cc(N2CCN(CCO)CC2)n1` [dasatinib], the improvement of solubility is recorded as 2-3 fold.
